Data taken from PMC6284575 (2018).

What was measured:
[1] = test system: Tte class-I preQ1 riboswitch aptamer, U22Ap variant (RNA, riboswitch, 2-aminopurine at 22 (replacing U22)) CUGGGUCGCAGUAACCCCAGUUAACAAAACAAG; experiment: 2-aminopurine fluorescence titration; settings: 100 mM KCl, 2 mM MgCl2; 50 mM MOPS, pH 7.5, 293 K; 0.5 µM RNA; apparent
[2] = test system: Spn class-II preQ1 riboswitch aptamer, A11Ap variant (RNA, riboswitch, 2-aminopurine at 11 (replacing A11)) CUUGGUGCUUAGCUUCUUUCACCAAGCAUAUUACACGCGGAUAACCGCCAAAGGA; experiment: 2-aminopurine fluorescence titration; settings: 100 mM KCl, 2 mM MgCl2; 50 mM MOPS, pH 7.5, 293 K; 0.5 µM RNA; apparent

Row | Structure (SMILES) | KD [1] [nM] | KD [2] [nM]
1 | [N-]=[N+]=NCCOCCNCc1c[nH]c2nc(N)[nH]c(=O)c12 | 167 | 203
2 | [N-]=[N+]=NCCCNCc1c[nH]c2nc(N)[nH]c(=O)c12 | 30 | 254
3 | NCCCCNCc1c[nH]c2nc(N)[nH]c(=O)c12 | 41 | 148
4 | NCc1c[nH]c2nc(N)[nH]c(=O)c12 | 51 | 430
5 | [N-]=[N+]=NCCCCNCc1c[nH]c2nc(N)[nH]c(=O)c12 | 88 | 432
6 | NCCCc1c[nH]c2nc(N)[nH]c(=O)c12 | 71 | 2830
7 | COCCOCCOCCNCc1c[nH]c2nc(N)[nH]c(=O)c12 | 922 | 4580
8 | Nc1nc2[nH]cc(CNCCCCCNCc3c[nH]c4nc(N)[nH]c(=O)c34)c2c(=O)[nH]1 | 590 | 1030
9 | NCCCNCc1c[nH]c2nc(N)[nH]c(=O)c12 | 32 | 97
